According to US12265082B2, “Detecting microbial infection in wounds” (SYNOVO GMBH, priority 2016, dated 2025):
Residues, ends and D or L forms follow the SMILES beside them. *: point of attachment. X5 = 4‑(N-piperazino)phenyl‑bis(4-dimethylaminophenyl)carbenium, CN(C)c1ccc([C+](c2ccc(N(C)C)cc2)c2ccc(N3CCN(*)CC3)cc2)cc1; X9 = CN(C)c1ccc([C+](c2ccc(N(C)C)cc2)c2ccc(N3CCN(*)CC3)cc2)cc1

How the values were obtained:
[1] = biological target: T1, human elastase from leucocytes (Homo sapiens, UniProt P08246); test: Enzyme hydrolysis of substrates by human elastase from leucocytes, cleavage products by ion trap MS; conditions: mass peak at m/z=484
T1 sequence (P08246 30-267): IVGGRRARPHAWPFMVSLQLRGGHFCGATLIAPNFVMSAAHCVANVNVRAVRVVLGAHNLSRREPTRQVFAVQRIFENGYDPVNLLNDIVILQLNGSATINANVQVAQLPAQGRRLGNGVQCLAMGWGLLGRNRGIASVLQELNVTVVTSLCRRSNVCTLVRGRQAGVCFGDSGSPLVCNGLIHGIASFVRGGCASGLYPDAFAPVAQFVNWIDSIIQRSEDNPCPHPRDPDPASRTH
Description: (§1) Appearance of the assay mixture was either a clear solution, a suspension or a gel, depending on the properties of the enzyme substrate. Incubation was performed at 37° C. After 3 and 20 h, 10 μL samples were taken and the enzyme was denatured by addition of 10 μL MeOH to each sample. After mixing and incubation at −20° C. for 20 min the samples were centrifuged at 13.000 rpm for 10 min. Each assay included a control without enzyme, containing 1 mg/mL to 5 mg/mL substrate and analysis was performed in the same way and in parallel to the enzyme-containing assays. The supernatant after MeOH precipitation was analyzed via ion trap MS, either [M+H]+ or [M−H]−, depending on the properties of the molecule and the expected cleavage products.

[2] = biological target: pancreatic porcine elastase (Sus scrofa, UniProt P00772); test: Enzyme hydrolysis of substrates by pancreatic porcine elastase, cleavage products by ion trap MS; conditions: mass peak at m/z=484
Sequence of pancreatic porcine elastase (P00772 27-266): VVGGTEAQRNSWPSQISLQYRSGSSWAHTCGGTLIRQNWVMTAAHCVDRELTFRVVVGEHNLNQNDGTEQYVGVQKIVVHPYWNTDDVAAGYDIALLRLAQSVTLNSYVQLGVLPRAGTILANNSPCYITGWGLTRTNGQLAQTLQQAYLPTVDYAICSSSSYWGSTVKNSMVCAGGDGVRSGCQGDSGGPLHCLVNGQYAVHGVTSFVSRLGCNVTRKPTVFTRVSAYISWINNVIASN
Description: as §1

MPO = biological target: T2, MPO (Homo sapiens, UniProt P05164); test: Reaction of methoxy aniline derivative as substrate of MPO; format: biochemical
T2 sequence (P05164 49-745): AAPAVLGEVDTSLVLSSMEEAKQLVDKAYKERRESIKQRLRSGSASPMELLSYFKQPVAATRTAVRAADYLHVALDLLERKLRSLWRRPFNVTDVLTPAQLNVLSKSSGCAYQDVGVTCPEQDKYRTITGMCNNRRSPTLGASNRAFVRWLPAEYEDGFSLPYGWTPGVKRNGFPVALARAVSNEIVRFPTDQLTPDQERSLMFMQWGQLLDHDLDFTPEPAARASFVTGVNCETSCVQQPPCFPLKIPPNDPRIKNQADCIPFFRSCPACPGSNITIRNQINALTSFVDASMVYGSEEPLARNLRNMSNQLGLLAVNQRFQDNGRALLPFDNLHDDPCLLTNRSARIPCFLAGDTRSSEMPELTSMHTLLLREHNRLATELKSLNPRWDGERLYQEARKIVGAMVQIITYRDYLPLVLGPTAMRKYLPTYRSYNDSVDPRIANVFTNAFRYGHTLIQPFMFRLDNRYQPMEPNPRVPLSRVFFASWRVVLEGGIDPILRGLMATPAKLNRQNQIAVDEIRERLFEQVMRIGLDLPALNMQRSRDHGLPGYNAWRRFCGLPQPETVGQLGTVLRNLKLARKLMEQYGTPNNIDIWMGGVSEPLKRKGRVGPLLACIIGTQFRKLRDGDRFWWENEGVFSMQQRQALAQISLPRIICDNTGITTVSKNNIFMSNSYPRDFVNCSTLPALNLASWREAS
Source text: The ideal ratio by mass is circa 2:8 aniline: product of example 10. The most efficient reaction occurs when the divalent anion is sulphuric acid, however, disulfonic substituted aromatic systems and phosphoric acid can also be used with diminished rate. HC1 provides only limited reaction. On reaction, one of the products of MPO oxidation appears to be the dimer of the two aniline components (see FIG. 13).

elastase = test: Treatment with elastase, released dye fragment found by MS-analysis (synthesis examples); format: biochemical; conditions: elastase species not stated
[3] = Color change of allyl sulfophthalein dyes with pH, base or ammonia; format: physicochemical

Row | Compound | release of dye fragment on treatment with elastase (elastase) | color change with pH / base / ammonia [3] | further results
1 | 4-([4-{H-Ala-Ala-Pro-Val-Ala}amido N-piperazino]phenyl)-bis-(4-dimethyl-aminophenyl)-carbenium ion polyacrylamide (H-AAPVA-X5; also: polyacrylamide) [Example 71e] |  |  | release of A-CV on treatment with human elastase [1]: releases A-CV; release of A-CV on treatment with porcine elastase [2]: releases A-CV
2 | CCCCCCCCCCCCC(O)CNc1cc(OC)c(NC(=O)c2ccccc2)cc1OC (racemic) [Example 10, N-(1-[2-Hydroxy]Tetradecanyl) Fast Blue RR (N-4-(1,3-Dimethoxy-2-N-Benzoylamidophenyl)-N′-Rac-(2-Hydroxy-n-Tetradecyl)-Amine)] |  |  | reaction as substrate of MPO (MPO): can be a direct substrate of MPO
3 | CC(N)C(=O)NC(C)C(=O)N1CCCC1C(=O)NC(C(=O)NC(C)C(=O)N1CCN(c2ccc([C+](c3ccc(N(C)C)cc3)c3ccc(N(C)C)cc3)cc2)CC1)C(C)C (stereo not drawn) [Example 71, 4-([4-{H-Ala-Ala-Pro-Val-Ala}[SEQ ID NO: 28]amido N-piperazino]phenyl)-bis-(4-dimethyl-aminophenyl)-carbenium ion] (H-AAPVA-X9; configuration not given here) | released A-CV |  | 
4 | C=CCOc1ccc(C2(c3ccc(O)c(Cl)c3)OS(=O)(=O)c3ccccc32)cc1Cl (centres unmarked) [Example 95, O-Allyl Chlorophenol Red] |  | no longer changed color with pH | 
5 | Bis-(4-dimethylaminophenyl)-(4-[4-N-{6-N-valinoyl)aminohexanoyl}]piperazinophenyl)-carbenium ion [Example 72] | releases no Ahx-CV |  | 
6 | C-Allyl Bromophenol Red [Example 97] |  | color changed with ammonia to violet | 
7 | C-Allyl Chlorophenol Red [Example 96] |  | changed color when treated with base to deep violet | 
8 | CMC 9M31F-AAPF-RBB [Example 55] | release of the dye |  | 
9 | CMC 9M31F-AAPFA-RBB [Example 54] | release of the dye |  | 
10 | Fmoc-AAPF-aminoethyl-(Remazol Black B)-(N′-acetyl)-ethylamide [Example 53] | yield the mono-acetylated-Remazol Black B-amino derivative |  | 
